US4906638A (priority 1987, dated 1990)
Entries after “also recorded” stand apart in the source; their conditions may differ. Read-outs that look alike come from different tables or passages of the source.

How the values were obtained:
[1] = test system: [^3 H]dextromethorphan receptor; settings: cited from earlier work; for effect on [^3 H]dextromethorphan binding / binding to the dextromethorphan site (in words): central nervous system site; for IC50: read-out: IC50, inhibition of [^3 H]dextromethorphan binding, in vitro
[2] = test system: maximal electroshock seizures (tonic hindlimb extension); test: maximal electroshock (MES) procedure for mice, transauricular (Example I); type: in vivo; settings: for mice protected: 500 mg/kg i.p.
Method: For combination studies two separate injections were administered. […] The absence of tonic hindlimb extension was taken as evidence for seizure protection.

[3] = observed signs of toxicity in mice after ethosuximide; type: in vivo; settings: 500 mg/kg i.p.
[4] = test system: N-methyl-D-aspartate-induced seizures; test: N-methyl-D-aspartate (NMDA) induced convulsions in mice; type: in vivo, mice (male CF-1); settings: for % Protected: 30 min before NMDA 250 mg/kg; for protection against N-methyl-D-asparate-induced seizures (in words): i.p.
Method: When mice (male CF-1; 25-30 g) are administered NMDA (250 mg/kg; IP) animals typically respond with seizure activity consisting of an initial staring, followed in rapid order by hindlimb scratching, increased locomotor activity, rearing behavior, clonic seizures, tonic extension and death.
All drugs were dissolved in saline (0.9%; w/v) and delivered by intraperitoneal injection in a volume of 1.0% (w/v) of body weight.

[5] = test system: maximal electroshock induced seizures; test: maximal electroshock (MES) induced seizures in mice (Example II); type: in vivo, mice (male CF-1); settings: for % Protected: 30 min before testing
Method: All drugs were dissolved in saline (0.9%; w/v) and delivered intraperitoneally in a volume equal to 1 percent of body weight. Animals failing to show tonic hindlimb extension were scored as protected from MES-induced convulsions.

[6] = rotorod-ataxia toxicity test (CNS side effects); settings: mouse, in vivo
From the text: (§1) Mice that were unable to maintain equilibrium for one continuous minute, given 3 opportunities were scored as ataxic.

[7] = test system: CNS side effects (rotorod ataxia); test: rotorod-ataxia toxicity test (CNS side effects); settings: maximal therapeutic dose of dextromethorphan
From the text: as §1

[8] = test system: [^3 H]TCP-labeled-NMDA-linked receptor; settings: cited from earlier work
[9] = test system: transauricular maximal electroshock seizure (MES); settings: cited from earlier work
[10] = test system: calcium-induced spasms in smooth muscle; settings: cited from earlier work
[11] = following 20 to 60 mg dextromethorphan p.o. in humans; cited from earlier work
[12] = rats, dogs and humans; cited from earlier work

In the case of `CCC1(c2ccccc2)C(=O)NC(=O)NC1=O` [phenobarbital], the “effect on [^3 H]dextromethorphan binding / binding to the dextromethorphan site (in words)” value [1] is given as “do not inhibit or enhance binding”.

For `OCCN1CCN(CC/C=C2/c3ccccc3Sc3ccc(C(F)(F)F)cc32)CC1` [flupenthinol], the “effect on [^3 H]dextromethorphan binding / binding to the dextromethorphan site (in words)” value [1] is listed as “bind to the same central nervous system site”.

In the case of `CN(C)CCOCCOC(=O)N1c2ccccc2Sc2ccccc21` [dimethoxanate], the “effect on [^3 H]dextromethorphan binding / binding to the dextromethorphan site (in words)” value [1] is listed as “bind to the same central nervous system site” and the IC50 [1] is listed as 1 to 75 nM.

For `CN1C(=O)CN=C(c2ccccc2)c2cc(Cl)ccc21` [diazepam], the “effect on [^3 H]dextromethorphan binding / binding to the dextromethorphan site (in words)” value [1] is given as “do not inhibit or enhance binding”.

For `CNC1(c2ccccc2Cl)CCCCC1=O` (centres unmarked) [ketamine], the “effect on [^3 H]dextromethorphan binding / binding to the dextromethorphan site (in words)” value [1] is listed as “do not inhibit or enhance binding”.

For `CN1[C@@H]2CC[C@H]1C[C@@H](OC(c1ccccc1)c1ccccc1)C2` [benztropine], the “effect on [^3 H]dextromethorphan binding / binding to the dextromethorphan site (in words)” value [1] is listed as “bind to the same central nervous system site”.

In the case of `c1ccc(C2(N3CCCCC3)CCCCC2)cc1` [phencyclidine], the “effect on [^3 H]dextromethorphan binding / binding to the dextromethorphan site (in words)” value [1] is listed as “do not inhibit or enhance binding”.

In the case of `C(=C\c1ccccc1)/CN1CCN(C(c2ccccc2)c2ccccc2)CC1` [cinnarizine], the “effect on [^3 H]dextromethorphan binding / binding to the dextromethorphan site (in words)” value [1] is given as “bind to the same central nervous system site”.

In the case of `CCC1(C)CC(=O)NC1=O` (centres unmarked) [Ethosuximide], the mice protected ([2]; at one half hour) is reported as “one in five”, the mice protected ([2]; one hour after injection) is reported as “none” and the “signs of sedation, ataxia and gross toxicity” value [3] is reported as “all mice injected showed signs of sedation, ataxia and gross toxicity”.

For `CN1CCN(CCCN2c3ccccc3Sc3ccc(C(F)(F)F)cc32)CC1` [trifluorperazine], the “effect on [^3 H]dextromethorphan binding / binding to the dextromethorphan site (in words)” value [1] is given as “bind to the same central nervous system site”.

For `CCN(CC)CCOC(=O)C1(c2ccccc2)CCCC1` [caramiphen], the “effect on [^3 H]dextromethorphan binding / binding to the dextromethorphan site (in words)” value [1] is given as “bind to the same central nervous system site” and the IC50 [1] is given as 1 to 75 nM.

In the case of `c1ccc(C2(c3ccccc3)OC[C@H]([C@@H]3CCCCN3)O2)cc1` [dexoxadrol], the “effect on [^3 H]dextromethorphan binding / binding to the dextromethorphan site (in words)” value [1] is listed as “do not inhibit or enhance binding”.

In the case of `CC(CN1c2ccccc2Sc2ccccc21)N(C)C` (centres unmarked) [promethazine], the “effect on [^3 H]dextromethorphan binding / binding to the dextromethorphan site (in words)” value [1] is listed as “bind to the same central nervous system site”.

For `CC(CN(C)C)CN1c2ccccc2Sc2ccccc21` (centres unmarked) [trimeprazine], the “effect on [^3 H]dextromethorphan binding / binding to the dextromethorphan site (in words)” value [1] is listed as “bind to the same central nervous system site”.

For `O=C(O)C1CN(CCCP(=O)(O)O)CCN1` (centres unmarked) [CPP, 3-(2-carboxypiperazin-4-yl)propyl-1-phosphono acid], the “% Protected” value ([4]; CPP 1.5 mg/kg i.p. alone) was 12.5%, the “% Protected” value ([4]; CPP 2.0 mg/kg i.p. alone) was 37.5% and the “protection against N-methyl-D-asparate-induced seizures (in words)” value [4] was “afforded protection”. The “% Protected” value ([5]; CPP 5 mg/kg i.p. alone) was 25% and the “% Protected” value ([5]; CPP 10 mg/kg i.p. alone) was 60%.

With `NC(=O)N1c2ccccc2C=Cc2ccccc21` [carbamazepine, 5-H-dibenzepin-(5)-carboxamide] the “% Mice Protected” value ([2]; CBM 1 mg/kg alone, 15 min before MES) was 0%, the “% Mice Protected” value ([2]; CBM 3 mg/kg alone, 15 min before MES) was 0% and the “% Mice Protected” value ([2]; CBM 6 mg/kg alone, 15 min before MES) was 25%. For the same compound, the “% Mice Protected” value ([2]; CBM 8 mg/kg alone, 15 min before MES) was 50%, the “% Mice Protected” value ([2]; CBM 9 mg/kg alone, 15 min before MES) was 75% and the “% Mice Protected” value ([2]; CBM 12 mg/kg alone, 15 min before MES) was 100%. For the same compound, the “ED50” value ([2]; CBM alone, 15 min) was 7.2 mg/kg, the TD50 at […] [6] was 44.8 mg/kg and the “effect on [^3 H]dextromethorphan binding / binding to the dextromethorphan site (in words)” value [1] was “did not inhibit or enhance; also recorded: do not inhibit or enhance binding”.

In the case of `OCCN1CCN(CCCN2c3ccccc3Sc3ccc(C(F)(F)F)cc32)CC1` [fluphenazine], the “effect on [^3 H]dextromethorphan binding / binding to the dextromethorphan site (in words)” value [1] is listed as “bind to the same central nervous system site”.

In the case of `CCN(CC)CCOCCOC(=O)C1(c2ccccc2)CCCC1` [carbetapentane], the “effect on [^3 H]dextromethorphan binding / binding to the dextromethorphan site (in words)” value [1] is listed as “bind to the same central nervous system site” and the IC50 [1] is listed as 1 to 75 nM.

For `CN(C)CCCN1c2ccccc2Sc2ccc(Cl)cc21` [chlorpromazine], the “effect on [^3 H]dextromethorphan binding / binding to the dextromethorphan site (in words)” value [1] is listed as “bind to the same central nervous system site”.

For `OCCN1CCN(CCCN2c3ccccc3C=Cc3ccccc32)CC1` [opipramol], the “effect on [^3 H]dextromethorphan binding / binding to the dextromethorphan site (in words)” value [1] is listed as “bind to the same central nervous system site”.

In the case of `CN1CCN(CCCN2c3ccccc3Sc3ccc(Cl)cc32)CC1` [prochlorperazine], the “effect on [^3 H]dextromethorphan binding / binding to the dextromethorphan site (in words)” value [1] is listed as “bind to the same central nervous system site”.

For `COc1ccc2c(c1)[C@]13CCCC[C@@H]1[C@H](C2)N(C)CC3` [dextromethorphan], the “% Mice Protected” value ([2]; 0 mg/kg CBM + 10 mg/kg DM (DM alone)) was 0%, the “% Mice Protected” value ([2]; 0 mg/kg CBM + 20 mg/kg DM (DM alone)) was 8% and the “protection when administered alone (in words)” value ([2]; 10 and 20 mg/kg, with 0 CBM) was “little or no protection”. For the same compound, the “% Protected” value ([2]; DM 5 mg/kg i.p., one-half hour before MES) was 0%, the “% Protected” value ([2]; DM 10 mg/kg i.p., one-half hour before MES) was 0% and the “% Protected” value ([2]; DM 20 mg/kg i.p., one-half hour before MES) was 8%. For the same compound, the “% Protected” value ([2]; DM 25 mg/kg i.p., one-half hour before MES) was 25%, the “% Protected” value ([2]; DM 30 mg/kg i.p., one-half hour before MES) was 37.5% and the “% Protected” value ([2]; DM 35 mg/kg i.p., one-half hour before MES) was 75%. For the same compound, the “% Protected” value ([2]; DM 45 mg/kg i.p., one-half hour before MES) was 87.5%, the “% Protected” value ([2]; DM 55 mg/kg i.p., one-half hour before MES) was 100% and the ED50 ([2]; Mus musculus, ip, 0.5 h, DM alone, i.p., one-half hour before MES, range in parentheses, read-out: ED50) was 29.2 mg/kg. The “anticonvulsant activity (in words)” value ([2]; alone, i.p., one-half hour before MES) was “dose dependent anticonvulsant activity”, the “increment in carbamazepine's CNS side effects (in words)” value [7] was “little increment in carbamazepine's CNS side effects” and the “% Protected” value ([4]; DM 10 mg/kg i.p. alone) was 33%. The “protection against N-methyl-D-asparate-induced seizures (in words)” value [4] was “afforded protection”, the “% Protected” value ([5]; DM 6.6 mg/kg i.p. alone) was 0% and the “% Protected” value ([5]; DM 10 mg/kg i.p. alone) was 16.6%. The “% Protected” value ([5]; DM 27 mg/kg i.p. alone) was 50%, the “% Protected” value ([5]; DM 30 mg/kg i.p. alone) was 66.6% and the “effect of dextromethorphan on anticonvulsant activity of CPP (in words)” value ([5]; low vs higher doses of dextromethorphan combined with CPP) was “readily apparent only when low doses of dextromethorphan were administered in combination with anticonvulsant doses of CPP; also recorded: higher doses of dextromethorphan were either ineffective to increase the anticonvulsant activity of CPP or, partially attenuated the activity”. The Kd ([1]; read-out: Kd, high affinity binding of [^3 H]dextromethorphan, homogenates of guinea pig, rat and mouse lower brainstem) was under 20 nM, the “binding at phencyclidine-labeled/N-methyl-D-asparate linked receptors (in words)” value [8] was “bind at phencyclidine-labeled/N-methyl-D-asparate linked receptors” and the “protection against transauricular maximal electroshock seizure (in words)” value ([9]; 30 mg/kg, by itself) was “provide protection against transauricular maximal electroshock seizure (MES)”. The “protection time against MES compared with dilantin (in words)” value ([9]; standard testing conditions) was “somewhat longer protection time against MES than that exhibited by dilantin”, the “block of calcium-induced spasms in smooth muscle (in words)” value [10] was “block calcium-induced spasms in smooth muscle” and the absolute plasma levels [11] was “five”.

In the case of `OCCN1CCN(CCCN2c3ccccc3Sc3ccc(Cl)cc32)CC1` [perphenazine], the “effect on [^3 H]dextromethorphan binding / binding to the dextromethorphan site (in words)” value [1] is listed as “bind to the same central nervous system site”.

For `Nc1ccccc1` [phenylamine], the “effect on [^3 H]dextromethorphan binding / binding to the dextromethorphan site (in words)” value [1] is given as “bind to the same central nervous system site”.

In the case of `O=C(OCCOCCN1CCCCC1)N1c2ccccc2Sc2cccnc21` [pipazethate], the “effect on [^3 H]dextromethorphan binding / binding to the dextromethorphan site (in words)” value [1] is listed as “bind to the same central nervous system site”.

For `COc1ccc2c(c1OC)C(=O)O[C@@H]2[C@H]1c2c(cc3c(c2OC)OCO3)CCN1C` [noscapine], the “effect on [^3 H]dextromethorphan binding / binding to the dextromethorphan site (in words)” value [1] is given as “markedly increased” and the “effect on [^3 H]dextromethorphan binding / binding to the dextromethorphan site (in words)” value ([1]; listed as roscapine) is given as “bind to the same central nervous system site”.

In the case of `CN1CC[C@@]23CCCC[C@@H]2[C@@H]1Cc1ccc(O)cc13` [dextrorphan], the “ratio of dextrorphan to dextromethorphan in plasma and urine” value [12] is given as “exceeds 100 to 1”.
